ChEMBL document CHEMBL1139388, “Crystal structure of the Homo sapiens kynureninase-3-hydroxyhippuric acid inhibitor complex: insights into the molecular basis of kynureninase substrate specificity” (J Med Chem, 2009)
Active and inactive are the calls of the source. No cut-off for these calls is given here.

Molecular target: T1, Kynureninase (Homo sapiens) (UniProt Q16719)
T1 sequence (whole entry): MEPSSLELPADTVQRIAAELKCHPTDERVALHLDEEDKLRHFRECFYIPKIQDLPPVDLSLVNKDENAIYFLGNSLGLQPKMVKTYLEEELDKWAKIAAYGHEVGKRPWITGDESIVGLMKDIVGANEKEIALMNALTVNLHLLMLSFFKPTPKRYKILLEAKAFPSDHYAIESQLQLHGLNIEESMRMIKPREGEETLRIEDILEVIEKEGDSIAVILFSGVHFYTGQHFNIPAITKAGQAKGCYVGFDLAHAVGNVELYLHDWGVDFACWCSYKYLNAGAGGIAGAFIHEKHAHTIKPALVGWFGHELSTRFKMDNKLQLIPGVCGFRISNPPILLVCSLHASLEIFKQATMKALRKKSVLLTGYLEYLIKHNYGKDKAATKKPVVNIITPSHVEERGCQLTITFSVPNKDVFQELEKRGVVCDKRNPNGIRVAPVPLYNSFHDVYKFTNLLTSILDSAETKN
Test: Inhibition of human kynureninase at 1 mM

With `Nc1c(O)cccc1C(=O)NCC(=O)O` the Activity was “inactive”.
In the case of `O=C(O)CNC(=O)c1ccccc1`, the Activity was “inactive”.
